Measurements as given in patent US9902703B2, “Somatostatin modulators and uses thereof” (Crinetics Pharmaceuticals, Inc., priority 2015, dated 2018).

molecular target: T1, human somatostatin receptor subtype 2 (Homo sapiens, UniProt P30874); assay: cAMP assay (functional assay for SSTR2 agonists); type: cell-based; conditions: CHO cells expressing human SSTR2; intracellular cAMP with forskolin, HTRF; read-out: SSTR2a EC50
T1 construct: expressed in transfected cells; host or cells: CHO (Chinese hamster ovary) cells, G-418 selected
T1 sequence (P30874 whole entry): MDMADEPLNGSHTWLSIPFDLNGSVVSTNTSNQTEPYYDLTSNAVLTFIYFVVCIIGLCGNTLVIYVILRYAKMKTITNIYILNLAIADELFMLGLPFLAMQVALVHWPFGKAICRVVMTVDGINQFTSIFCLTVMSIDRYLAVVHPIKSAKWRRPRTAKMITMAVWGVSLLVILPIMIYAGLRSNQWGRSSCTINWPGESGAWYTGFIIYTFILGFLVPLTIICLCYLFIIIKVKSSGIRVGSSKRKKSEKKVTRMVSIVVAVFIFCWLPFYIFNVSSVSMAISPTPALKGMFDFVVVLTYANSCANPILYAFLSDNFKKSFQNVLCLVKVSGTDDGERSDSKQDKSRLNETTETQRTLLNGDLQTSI
Text: Functional Assay for SSTR2 Agonists
General overview: All five SSTR subtypes are Gi coupled G-protein coupled receptors (GPCRs) that lead to decreases in intracellular cyclic AMP (cAMP) when activated by an agonist. Therefore, measurement of intracellular cAMP levels can be used to assess whether compounds of the invention are agonists of SSTR subtypes (John Kelly, Troy Stevens, W. Joseph Thompson, and Roland Seifert, Current Protocols in Pharmacology, 2005, 2.2.1-2.2). One example of an intracellular cAMP assay is described below.
One day prior to the assay, 40,000 Chinese hamster ovary (CHO) cells expressing the human somatostatin receptor subtype 2 are plated in each well of a 96-well tissue culture plate in DM-MEM growth media (Gibco) with the following additives: 10% fetal bovine serum (Gibco), 100 U/mL penicillin (Gibco), 100 ug/mL streptomycin (Gibco), 10 mM HEPES (Gibco), 1.2 mM sodium hydroxide, 0.5 mg/mL G-418 (Gibco)). The cells are cultured overnight at 37° C., 5% CO2 and 95% humidity. On the day of the assay, the media is aspirated and the cells are washed with 1× Dulbecco's phosphate buffered saline (Gibco). Next, 5 μL of assay buffer (1× Earle's Balanced Salt Solution (Gibco), 5 mM MgCl2, 10 mM HEPES, 0.1% bovine serum albumin, 0.2 mM 3-Isobutyl-1-methylxanthine (IBMX, Biomol Research Labs)) and forskolin is added. Various dilutions of the compounds of the invention are prepared in assay buffer and 5 μL of the dilutions are added to the cultured cells and incubated for 15 minutes at 37° C. […] 10 μL of lysis buffer (HRTF cAMP kit, Cisbio) containing cAMP detection and visualization antibodies are added and the assay is allowed incubate for 1-24 hours at room temperature. The intracellular cAMP concentrations are then measured using a commercially available detection kit (for example, the cAMP HTRF kit, Cisbio). The measured intracellular cAMP concentrations are plotted vs. the concentration of the compounds of the invention and the EC50 of the compounds are calculated using standard methods.

| Structure (SMILES) | EC50 |
| --- | --- |
| Cc1cc(Cl)cc(N2C=Nc3cc(C)c(-c4cc(F)cc(C(N)=O)c4)cc3C2C(=O)N(C)C[C@@H]2CCCN2)c1 (single isomer, unassigned) [Compound 3-1] | < 0.1 µM |
| Cc1cc(Cl)cc(N2C=Nc3cc(C)c(-c4cc(F)ccc4O)cc3C2C(=O)N(C)C[C@@H]2CCCN2)c1 (single isomer, unassigned) [Compound 3-2] | < 0.1 µM |
| Cc1cc(C)cc(N2C=Nc3ccc(-c4cccc(O)c4)cc3C2C(=O)N(C)C[C@H](C)N)c1 (stereo partly drawn) [Compound 1-1, N-[(2S)-2-aminopropyl]-3-(3,5-dimethylphenyl)-6-(3-hydroxyphenyl)-N-methyl-3,4-dihydroquinazoline-4-carboxamide] | 0.1 to 1 µM |
| Cc1cc(C)cc(N2C=Nc3ccc(-c4cccc(O)c4)cc3C2C(=O)N(C)CCN)c1 (centres unmarked) [Compound 1-2, N-(2-aminoethyl)-3-(3,5-dimethylphenyl)-6-(3-hydroxyphenyl)-N-methyl-3,4-dihydroquinazoline-4-carboxamide] | 0.1 to 1 µM |
| Cc1cc(C)cc(N2C=Nc3cc(Cl)c(-c4cccc(O)c4)cc3C2C(=O)NCCN)c1 (centres unmarked) [Compound 1-3, N-(2-aminoethyl)-7-chloro-3-(3,5-dimethylphenyl)-6-(3-hydroxyphenyl)-3,4-dihydroquinazoline-4-carboxamide] | 1 to 10 µM |
| Cc1cc(C)cc(N2C=Nc3cc(Cl)c(-c4cccc(O)c4)cc3C2C(=O)N(C)C[C@H](C)N)c1 (stereo partly drawn) [Compound 1-4, N-[(2S)-2-aminopropyl]-7-chloro-3-(3,5-dimethylphenyl)-6-(3-hydroxyphenyl)-N-methyl-3,4-dihydroquinazoline-4-carboxamide] | < 0.1 µM |
| CC[C@H](N)CN(C)C(=O)C1c2cc(-c3cccc(O)c3)c(Cl)cc2N=CN1c1cc(C)cc(C)c1 (stereo partly drawn) [Compound 1-5, N-[(2S)-2-aminobutyl]-7-chloro-3-(3,5-dimethylphenyl)-6-(3-hydroxyphenyl)-N-methyl-3,4-dihydroquinazoline-4-carboxamide] | < 0.1 µM |
| CC[C@H](N)CN(C)C(=O)C1c2cc(-c3cc(O)cc(F)c3)c(Cl)cc2N=CN1c1cc(C)cc(C)c1 (stereo partly drawn) [Compound 1-6, N-[(2S)-2-aminobutyl]-7-chloro-3-(3,5-dimethylphenyl)-6-(3-fluoro-5-hydroxyphenyl)-N-methyl-3,4-dihydroquinazoline-4-carboxamide] | < 0.1 µM |
| CC[C@H](N)CN(C)C(=O)C1c2cc(-c3cc(C)cc(O)c3)c(Cl)cc2N=CN1c1cc(C)cc(C)c1 (stereo partly drawn) [Compound 1-7, N-[(2S)-2-aminobutyl]-7-chloro-3-(3,5-dimethylphenyl)-6-(3-hydroxy-5-methylphenyl)-N-methyl-3,4-dihydroquinazoline-4-carboxamide] | < 0.1 µM |
| CC[C@H](N)CN(C)C(=O)C1c2cc(-c3cc(O)ccc3C)c(Cl)cc2N=CN1c1cc(C)cc(C)c1 (stereo partly drawn) [Compound 1-8, N-[(2S)-2-aminobutyl]-7-chloro-3-(3,5-dimethylphenyl)-6-(5-hydroxy-2-methylphenyl)-N-methyl-3,4-dihydroquinazoline-4-carboxamide] | < 0.1 µM |
| CC[C@H](N)CN(C)C(=O)C1c2cc(-c3cccc(O)c3)c(C)cc2N=CN1c1cc(C)cc(C)c1 (stereo partly drawn) [Compound 1-9, N-[(2S)-2-aminobutyl]-3-(3,5-dimethylphenyl)-6-(3-hydroxyphenyl)-N,7-dimethyl-3,4-dihydroquinazoline-4-carboxamide] | < 0.1 µM |
| CC[C@H](N)CN(C)C(=O)C1c2cc(-c3cc(O)ccc3F)c(C)cc2N=CN1c1cc(C)cc(C)c1 (stereo partly drawn) [Compound 1-10, N-[(2S)-2-aminobutyl]-3-(3,5-dimethylphenyl)-6-(2-fluoro-5-hydroxyphenyl)-N,7-dimethyl-3,4-dihydroquinazoline-4-carboxamide] | < 0.1 µM |
| CC[C@H](N)CN(C)C(=O)C1c2cc(-c3cccc(O)c3F)c(C)cc2N=CN1c1cc(C)cc(C)c1 (stereo partly drawn) [Compound 1-11, N-[(2S)-2-aminobutyl]-3-(3,5-dimethylphenyl)-6-(2-fluoro-3-hydroxyphenyl)-N,7-dimethyl-3,4-dihydroquinazoline-4-carboxamide] | < 0.1 µM |
| Cc1cc(C)cc(N2C=Nc3cc(C)c(-c4cccc(O)c4)cc3C2C(=O)N(C)C[C@@H]2CCCN2)c1 (stereo partly drawn) [Compound 1-12, 3-(3,5-dimethylphenyl)-6-(3-hydroxyphenyl)-N,7-dimethyl-N-[(2S)-pyrrolidin-2-ylmethyl]-3,4-dihydroquinazoline-4-carboxamide] | < 0.1 µM |
| CC[C@H](N)CN(C)C(=O)C1c2cc(-c3cccc(O)c3)c(C)cc2N=CN1c1cc(C)cc(Cl)c1 (stereo partly drawn) [Compound 1-13, N-[(2S)-2-aminobutyl]-3-(3-chloro-5-methylphenyl)-6-(3-hydroxyphenyl)-N,7-dimethyl-3,4-dihydroquinazoline-4-carboxamide] | < 0.1 µM |
| CC[C@H](N)CN(C)C(=O)C1c2cc(-c3cc(O)c(F)cc3F)c(C)cc2N=CN1c1cc(C)cc(C)c1 (stereo partly drawn) [Compound 1-14, N-[(2S)-2-aminobutyl]-6-(2,4-difluoro-5-hydroxyphenyl)-3-(3,5-dimethylphenyl)-N,7-dimethyl-3,4-dihydroquinazoline-4-carboxamide] | 0.1 to 1 µM |
| CC[C@H](N)CN(C)C(=O)C1c2cc(-c3c(F)ccc(O)c3F)c(C)cc2N=CN1c1cc(C)cc(C)c1 (stereo partly drawn) [Compound 1-15, N-[(2S)-2-aminobutyl]-6-(2,6-difluoro-3-hydroxyphenyl)-3-(3,5-dimethylphenyl)-N,7-dimethyl-3,4-dihydroquinazoline-4-carboxamide] | < 0.1 µM |
| CC[C@H](N)CN(C)C(=O)C1c2cc(-c3cc(O)ccc3Cl)c(C)cc2N=CN1c1cc(C)cc(C)c1 (stereo partly drawn) [Compound 1-16, N-[(2S)-2-aminobutyl]-6-(2-chloro-5-hydroxyphenyl)-3-(3,5-dimethylphenyl)-N,7-dimethyl-3,4-dihydroquinazoline-4-carboxamide] | < 0.1 µM |
| Cc1cc(Cl)cc(N2C=Nc3cc(C)c(-c4cccc(O)c4)cc3C2C(=O)N(C)C[C@@H]2CCCN2)c1 (stereo partly drawn) [Compound 1-17, 3-(3-chloro-5-methylphenyl)-6-(3-hydroxyphenyl)-N,7-dimethyl-N-[(2S)-pyrrolidin-2-ylmethyl]-3,4-dihydroquinazoline-4-carboxamide] | < 0.1 µM |
| Cc1cc(Cl)cc(N2C=Nc3cc(C)c(-c4cccc(O)c4)cc3C2C(=O)N(C)C[C@H]2CCCN2)c1 (stereo partly drawn) [Compound 1-18, 3-(3-chloro-5-methylphenyl)-6-(3-hydroxyphenyl)-N,7-dimethyl-N-[(2R)-pyrrolidin-2-ylmethyl]-3,4-dihydroquinazoline-4-carboxamide] | < 0.1 µM |
| Cc1cc(Cl)cc(N2C=Nc3cc(C)c(-c4cc(O)ccc4F)cc3C2C(=O)N(C)C[C@@H]2CCCN2)c1 (stereo partly drawn) [Compound 1-19, 3-(3-chloro-5-methylphenyl)-6-(2-fluoro-5-hydroxyphenyl)-N,7-dimethyl-N-[(2S)-pyrrolidin-2-ylmethyl]-3,4-dihydroquinazoline-4-carboxamide] | < 0.1 µM |
| Cc1cc(Cl)cc(N2C=Nc3cc(C)c(-c4cc(O)ccc4Cl)cc3C2C(=O)N(C)C[C@@H]2CCCN2)c1 (stereo partly drawn) [Compound 1-20, 6-(2-chloro-5-hydroxyphenyl)-3-(3-chloro-5-methylphenyl)-N,7-dimethyl-N-[(2S)-pyrrolidin-2-ylmethyl]-3,4-dihydroquinazoline-4-carboxamide] | < 0.1 µM |
| Cc1cc(Cl)cc(N2C=Nc3cc(C)c(-c4cc(O)ccc4C#N)cc3C2C(=O)N(C)C[C@@H]2CCCN2)c1 (stereo partly drawn) [Compound 1-21, 3-(3-chloro-5-methylphenyl)-6-(2-cyano-5-hydroxyphenyl)-N,7-dimethyl-N-[(2S)-pyrrolidin-2-ylmethyl]-3,4-dihydroquinazoline-4-carboxamide] | < 0.1 µM |
| COc1cc(F)cc(N2C=Nc3cc(C)c(-c4cc(O)ccc4F)cc3C2C(=O)N(C)C[C@@H]2CCCN2)c1 (stereo partly drawn) [Compound 1-22, 6-(2-fluoro-5-hydroxyphenyl)-3-(3-fluoro-5-methoxyphenyl)-N,7-dimethyl-N-[(2S)-pyrrolidin-2-ylmethyl]-3,4-dihydroquinazoline-4-carboxamide] | < 0.1 µM |
| Cc1cc(Cl)cc(N2C=Nc3cc(C)c(-c4cc(O)ccc4Cl)cc3C2C(=O)N(C)C[C@@H]2CCCCN2)c1 (stereo partly drawn) [Compound 1-23, 6-(2-chloro-5-hydroxyphenyl)-3-(3-chloro-5-methylphenyl)-N,7-dimethyl-N-[(2S)-piperidin-2-ylmethyl]-3,4-dihydroquinazoline-4-carboxamide] | < 0.1 µM |
| Cc1cc(Cl)cc(N2C=Nc3cc(C)c(-c4cccc(C(N)=O)c4)cc3C2C(=O)N(C)C[C@@H]2CCCCN2)c1 (stereo partly drawn) [Compound 1-24, 6-(3-carbamoylphenyl)-3-(3-chloro-5-methylphenyl)-N,7-dimethyl-N-[(2S)-piperidin-2-ylmethyl]-3,4-dihydroquinazoline-4-carboxamide] | < 0.1 µM |
